Experiment [1] relates to a variety of test species. Briefly: Post-emergence herbicidal activity (Example 8b, Table 3). Format: in vivo. The settings on record: application post-emergence, rate 1000 g/ha, evaluated after 13 days, scale 0-5; for Herbicidal damage score, ABUTH: Abutilon theophrasti; for Herbicidal damage score, ALOMY: Alopecurus myosuroides; for Herbicidal damage score, AMARE: Amaranthus retroflexus; for Herbicidal damage score, ECHCG: Echinochloa crus-galli; for Herbicidal damage score, SETFA: Setaria faberi; for Herbicidal damage score, ZEAMX: Zea mays. The method in brief:
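Foliar application to 8-day-old plants using a 0.5% Tween 20 acetone/water carrier; phytotoxicity is scored visually from 0 to 5 after 13 days of growth at 24/16 °C day/night.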

Experiment [2] concerns a variety of test species. Briefly: Pre-emergence herbicidal activity (Example 8a, Table 2). The settings on record: application pre-emergence, rate 1000 g/ha, evaluated after 13 days. On the set-up: key: 0 = no damage to plant, 5 = total damage to plant. Format: in vivo. Put shortly:
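Pre-emergence spray, one day post-sowing; vehicle acetone/water (50:50) + 0.5% Tween 20, aqueous dilution. Glasshouse 24/16 °C, 14 h light, 65% RH, watering twice daily. Score at 13 d on 0–5 scale, 5 = total damage.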

`CC1=C(Cl)C(=O)N(c2nn(C)c3c2C2CCC3C2)C1O` (stereo not drawn) [Compound E4]: in experiment [1], the “Herbicidal damage score, ABUTH” value is 5; the “Herbicidal damage score, ALOMY” value is on record as 4; the “Herbicidal damage score, AMARE” value was 5; the “Herbicidal damage score, ECHCG” value is on record as 5. In experiment [1], the “Herbicidal damage score, SETFA” value was found to be 5 and the “Herbicidal damage score, ZEAMX” value amounted to 4. Also, in experiment [2], the “Pre-emergence herbicidal activity, damage score ABUTH” value was 5; the “Pre-emergence herbicidal activity, damage score ALOMY” value is on record as 3; the “Pre-emergence herbicidal activity, damage score AMARE” value was found to be 5; the “Pre-emergence herbicidal activity, damage score ECHCG” value is 4. For the same compound, in experiment [2], the “Pre-emergence herbicidal activity, damage score SETFA” value is reported as 5 and the “Pre-emergence herbicidal activity, damage score ZEAMX” value is listed as 2.
Regarding `CC1=C(Cl)C(=O)N(c2nn(C)c3c2CCCC3(C)C)C1O` (stereo not drawn) [Compound E5], in experiment [1], the “Herbicidal damage score, ABUTH” value came out at 5; the “Herbicidal damage score, ALOMY” value turned out to be 5; the “Herbicidal damage score, AMARE” value worked out at 5; the “Herbicidal damage score, ECHCG” value worked out at 5. For the same compound, in experiment [1], the “Herbicidal damage score, SETFA” value came out at 5 and the “Herbicidal damage score, ZEAMX” value was 4. In addition, in experiment [2], the “Pre-emergence herbicidal activity, damage score ABUTH” value worked out at 5; the “Pre-emergence herbicidal activity, damage score ALOMY” value came to 3; the “Pre-emergence herbicidal activity, damage score AMARE” value stood at 5; the “Pre-emergence herbicidal activity, damage score ECHCG” value was 5. Further, in experiment [2], the “Pre-emergence herbicidal activity, damage score SETFA” value was found to be 5 and the “Pre-emergence herbicidal activity, damage score ZEAMX” value was determined as 2.
`CC1=C(Cl)C(=O)N(c2cc(C(C)(C)C)n(C)n2)C1OC(=O)OCC(C)C` (stereo not drawn) [Compound F1]: in experiment [1], the “Herbicidal damage score, ABUTH” value amounted to 5; the “Herbicidal damage score, ALOMY” value was 5; the “Herbicidal damage score, AMARE” value was found to be 5; the “Herbicidal damage score, ECHCG” value came out at 5. In experiment [1], the “Herbicidal damage score, SETFA” value came to 5 and the “Herbicidal damage score, ZEAMX” value is on record as 5. In experiment [2], the “Pre-emergence herbicidal activity, damage score ABUTH” value is listed as 5; the “Pre-emergence herbicidal activity, damage score ALOMY” value is 3; the “Pre-emergence herbicidal activity, damage score AMARE” value is 5; the “Pre-emergence herbicidal activity, damage score ECHCG” value is listed as 5. Also, in experiment [2], the “Pre-emergence herbicidal activity, damage score SETFA” value amounted to 4 and the “Pre-emergence herbicidal activity, damage score ZEAMX” value was determined as 2.
For the compound `CC1=C(Cl)C(=O)N(c2cc(C(C)(C)C)n(C)n2)C1OC(=O)Oc1ccccc1` (stereo not drawn) [Compound F2], in experiment [1], the “Herbicidal damage score, ABUTH” value came to 5; the “Herbicidal damage score, ALOMY” value stood at 5; the “Herbicidal damage score, AMARE” value came out at 5; the “Herbicidal damage score, ECHCG” value is reported as 5. For the same compound, in experiment [1], the “Herbicidal damage score, SETFA” value stood at 5 and the “Herbicidal damage score, ZEAMX” value stood at 5. Also, in experiment [2], the “Pre-emergence herbicidal activity, damage score ABUTH” value turned out to be 5; the “Pre-emergence herbicidal activity, damage score ALOMY” value came out at 3; the “Pre-emergence herbicidal activity, damage score AMARE” value came to 5; the “Pre-emergence herbicidal activity, damage score ECHCG” value turned out to be 5. For the same compound, in experiment [2], the “Pre-emergence herbicidal activity, damage score SETFA” value is recorded as 4 and the “Pre-emergence herbicidal activity, damage score ZEAMX” value came to 3.
As for `CC1=C(Cl)C(=O)N(c2cc(C(C)(C)C)n(C)n2)C1OC(=O)Oc1ccccc1` (stereo not drawn) [Compound F3], in experiment [1], the “Herbicidal damage score, ABUTH” value is listed as 5; the “Herbicidal damage score, ALOMY” value was 5; the “Herbicidal damage score, AMARE” value was 5; the “Herbicidal damage score, ECHCG” value is reported as 5. For the same compound, in experiment [1], the “Herbicidal damage score, SETFA” value amounted to 5 and the “Herbicidal damage score, ZEAMX” value is 5. In addition, in experiment [2], the “Pre-emergence herbicidal activity, damage score ABUTH” value is listed as 5; the “Pre-emergence herbicidal activity, damage score ALOMY” value came out at 3; the “Pre-emergence herbicidal activity, damage score AMARE” value is reported as 5; the “Pre-emergence herbicidal activity, damage score ECHCG” value is listed as 5. Besides, in experiment [2], the “Pre-emergence herbicidal activity, damage score SETFA” value was 4 and the “Pre-emergence herbicidal activity, damage score ZEAMX” value is 3.
Take `CC1=C(Cl)C(=O)N(c2cc(C(C)(C)C)n(C)n2)C1OC(=O)OCC(C)C` (stereo not drawn) [Compound F4]: in experiment [1], the “Herbicidal damage score, ABUTH” value came out at 5; the “Herbicidal damage score, ALOMY” value was found to be 5; the “Herbicidal damage score, AMARE” value worked out at 5; the “Herbicidal damage score, ECHCG” value is recorded as 5. In addition, in experiment [1], the “Herbicidal damage score, SETFA” value is reported as 5 and the “Herbicidal damage score, ZEAMX” value worked out at 5. For the same compound, in experiment [2], the “Pre-emergence herbicidal activity, damage score ABUTH” value was found to be 5; the “Pre-emergence herbicidal activity, damage score ALOMY” value turned out to be 3; the “Pre-emergence herbicidal activity, damage score AMARE” value worked out at 5; the “Pre-emergence herbicidal activity, damage score ECHCG” value came to 5. In addition, in experiment [2], the “Pre-emergence herbicidal activity, damage score SETFA” value is reported as 4 and the “Pre-emergence herbicidal activity, damage score ZEAMX” value stood at 2.
`CC1=C(Cl)C(=O)N(c2cc3n(n2)CCC3(C)C)C1O` (stereo not drawn) [Compound G2]: in experiment [1], the “Herbicidal damage score, ABUTH” value was 5; the “Herbicidal damage score, ALOMY” value is listed as 5; the “Herbicidal damage score, AMARE” value was found to be 5; the “Herbicidal damage score, ECHCG” value is reported as 5. For the same compound, in experiment [1], the “Herbicidal damage score, SETFA” value is listed as 5 and the “Herbicidal damage score, ZEAMX” value is 4. Besides, in experiment [2], the “Pre-emergence herbicidal activity, damage score ABUTH” value came out at 5; the “Pre-emergence herbicidal activity, damage score ALOMY” value is listed as 4; the “Pre-emergence herbicidal activity, damage score AMARE” value was determined as 5; the “Pre-emergence herbicidal activity, damage score ECHCG” value amounted to 5. In experiment [2], the “Pre-emergence herbicidal activity, damage score SETFA” value is recorded as 5 and the “Pre-emergence herbicidal activity, damage score ZEAMX” value worked out at 4.
Consider `CC1=C(Cl)C(=O)N(c2cc3n(n2)CCCC3(C)C)C1O` (stereo not drawn) [Compound G4], for which, in experiment [1], the “Herbicidal damage score, ABUTH” value is reported as 5; the “Herbicidal damage score, ALOMY” value is 5; the “Herbicidal damage score, AMARE” value was 5; the “Herbicidal damage score, ECHCG” value is recorded as 5. Moreover, in experiment [1], the “Herbicidal damage score, SETFA” value is 5 and the “Herbicidal damage score, ZEAMX” value came out at 5. Also, in experiment [2], the “Pre-emergence herbicidal activity, damage score ABUTH” value was 5; the “Pre-emergence herbicidal activity, damage score ALOMY” value was 4; the “Pre-emergence herbicidal activity, damage score AMARE” value worked out at 5; the “Pre-emergence herbicidal activity, damage score ECHCG” value is on record as 5. Besides, in experiment [2], the “Pre-emergence herbicidal activity, damage score SETFA” value stood at 5 and the “Pre-emergence herbicidal activity, damage score ZEAMX” value came out at 3.
As for `CC1=C(Cl)C(=O)N(c2cc3n(n2)CCC3(C)C)C1O` (stereo not drawn) [Compound G8], in experiment [1], the “Herbicidal damage score, ABUTH” value stood at 5; the “Herbicidal damage score, ALOMY” value worked out at 5; the “Herbicidal damage score, AMARE” value came to 5; the “Herbicidal damage score, ECHCG” value stood at 5. Further, in experiment [1], the “Herbicidal damage score, SETFA” value worked out at 5 and the “Herbicidal damage score, ZEAMX” value came out at 4. Also, in experiment [2], the “Pre-emergence herbicidal activity, damage score ABUTH” value is on record as 5; the “Pre-emergence herbicidal activity, damage score ALOMY” value was 4; the “Pre-emergence herbicidal activity, damage score AMARE” value came to 5; the “Pre-emergence herbicidal activity, damage score ECHCG” value turned out to be 5. Moreover, in experiment [2], the “Pre-emergence herbicidal activity, damage score SETFA” value came to 5 and the “Pre-emergence herbicidal activity, damage score ZEAMX” value is on record as 4.
With `CC1=C(Cl)C(=O)N(c2cc3n(n2)CCCC3(C)C)C1O` (stereo not drawn) [Compound G9], in experiment [1], the “Herbicidal damage score, ABUTH” value amounted to 5; the “Herbicidal damage score, ALOMY” value was 5; the “Herbicidal damage score, AMARE” value is listed as 5; the “Herbicidal damage score, ECHCG” value came to 5. Moreover, in experiment [1], the “Herbicidal damage score, SETFA” value is recorded as 5 and the “Herbicidal damage score, ZEAMX” value came to 5. In addition, in experiment [2], the “Pre-emergence herbicidal activity, damage score ABUTH” value was found to be 5; the “Pre-emergence herbicidal activity, damage score ALOMY” value was 4; the “Pre-emergence herbicidal activity, damage score AMARE” value is 5; the “Pre-emergence herbicidal activity, damage score ECHCG” value is reported as 5. For the same compound, in experiment [2], the “Pre-emergence herbicidal activity, damage score SETFA” value amounted to 5 and the “Pre-emergence herbicidal activity, damage score ZEAMX” value is recorded as 3.
As for `CC1=C(Cl)C(=O)N(c2cc3n(n2)CCSC3(C)C)C1O` (stereo not drawn) [Compound G10], in experiment [1], the “Herbicidal damage score, ABUTH” value was determined as 5; the “Herbicidal damage score, ALOMY” value came out at 5; the “Herbicidal damage score, AMARE” value is 5; the “Herbicidal damage score, ECHCG” value stood at 5. Moreover, in experiment [1], the “Herbicidal damage score, SETFA” value is 5 and the “Herbicidal damage score, ZEAMX” value was 4. Also, in experiment [2], the “Pre-emergence herbicidal activity, damage score ABUTH” value came to 5; the “Pre-emergence herbicidal activity, damage score ALOMY” value is recorded as 3; the “Pre-emergence herbicidal activity, damage score AMARE” value is reported as 5; the “Pre-emergence herbicidal activity, damage score ECHCG” value came to 5. In experiment [2], the “Pre-emergence herbicidal activity, damage score SETFA” value came to 4 and the “Pre-emergence herbicidal activity, damage score ZEAMX” value is given as 4.
Turning to `CC1=C(Cl)C(=O)N(c2cc3n(n2)CCS(=O)(=O)C3(C)C)C1O` (stereo not drawn) [Compound G11], in experiment [1], the “Herbicidal damage score, ABUTH” value is listed as 5; the “Herbicidal damage score, ALOMY” value was determined as 5; the “Herbicidal damage score, AMARE” value is recorded as 5; the “Herbicidal damage score, ECHCG” value is reported as 5. Moreover, in experiment [1], the “Herbicidal damage score, SETFA” value turned out to be 5 and the “Herbicidal damage score, ZEAMX” value was 3. In addition, in experiment [2], the “Pre-emergence herbicidal activity, damage score ABUTH” value stood at 5; the “Pre-emergence herbicidal activity, damage score ALOMY” value was 4; the “Pre-emergence herbicidal activity, damage score AMARE” value is listed as 5; the “Pre-emergence herbicidal activity, damage score ECHCG” value was 5. For the same compound, in experiment [2], the “Pre-emergence herbicidal activity, damage score SETFA” value was 5 and the “Pre-emergence herbicidal activity, damage score ZEAMX” value is recorded as 4.

Values taken from patent US9605004B2, “Chemical compounds” (SYNGENTA LIMITED, priority 2013, dated 2017).
